According to the supplement of paper PMC10307832:

How the values were obtained:
Assay in all cases: relative viability (nuclei count vs DMSO), 5 days (fraction); higher = more cells survive
Zebularine + Trametinib = compound: O=c1ncccn1[C@@H]1O[C@H](CO)[C@@H](O)[C@H]1O [Zebularine] + CC(=O)Nc1cccc(-n2c(=O)n(C3CC3)c(=O)c3c(Nc4ccc(I)cc4F)n(C)c(=O)c(C)c32)c1 [Trametinib] (partner 0.02 µM)
Summary of the method: (§1)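 Relative viability is defined as nuclei in treated wells over nuclei in vehicle wells. Duplicate plates were run and medians reported. Lung cancer cell lines in 1536-well plates were dosed by pin tool one day after seeding, with one drug or with a fixed anchor-drug dose plus five library-drug doses (not always all listed) in √10 steps, and nuclei were counted after 5 days.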

Zebularine + Pemetrexed = compound: O=c1ncccn1[C@@H]1O[C@H](CO)[C@@H](O)[C@H]1O [Zebularine] + Nc1nc2[nH]cc(CCc3ccc(C(=O)N[C@@H](CCC(=O)O)C(=O)O)cc3)c2c(=O)[nH]1 [Pemetrexed] (partner 0.2 µM)
Summary of the method: as §1

Zebularine + Foretinib = compound: O=c1ncccn1[C@@H]1O[C@H](CO)[C@@H](O)[C@H]1O [Zebularine] + COc1cc2c(Oc3ccc(NC(=O)C4(C(=O)Nc5ccc(F)cc5)CC4)cc3F)ccnc2cc1OCCCN1CCOCC1 [Foretinib] (partner 0.25 µM)
Summary of the method: as §1

BI-D1870 + Pemetrexed = compound: CC(C)CCN1c2nc(Nc3cc(F)c(O)c(F)c3)ncc2N(C)C(=O)C1C [BI-D1870] + Nc1nc2[nH]cc(CCc3ccc(C(=O)N[C@@H](CCC(=O)O)C(=O)O)cc3)c2c(=O)[nH]1 [Pemetrexed] (partner 0.2 µM)
Summary of the method: as §1

LOU-NH91
relative viability (Zebularine + Trametinib; first compound 1 µM): 0.773
relative viability (Zebularine + Trametinib; first compound 3.162 µM): 0.814
relative viability (Zebularine + Trametinib; first compound 10 µM): 0.718
relative viability (Zebularine + Trametinib; first compound 31.62 µM): 0.843
relative viability (Zebularine + Trametinib; first compound 100 µM): 0.65
relative viability (Zebularine + Pemetrexed; first compound 1 µM): 0.368
relative viability (Zebularine + Pemetrexed; first compound 3.162 µM): 0.415
relative viability (Zebularine + Pemetrexed; first compound 10 µM): 0.419
relative viability (Zebularine + Pemetrexed; first compound 31.62 µM): 0.355
relative viability (Zebularine + Pemetrexed; first compound 100 µM): 0.398
relative viability (Zebularine + Foretinib; first compound 1 µM): 0.95
relative viability (Zebularine + Foretinib; first compound 3.162 µM): 0.888
relative viability (Zebularine + Foretinib; first compound 10 µM): 0.866
relative viability (Zebularine + Foretinib; first compound 31.62 µM): 0.947
relative viability (Zebularine + Foretinib; first compound 100 µM): 0.567
relative viability (BI-D1870 + Pemetrexed; first compound 0.04 µM): 0.355
relative viability (BI-D1870 + Pemetrexed; first compound 0.1265 µM): 0.372
relative viability (BI-D1870 + Pemetrexed; first compound 0.4 µM): 0.329
relative viability (BI-D1870 + Pemetrexed; first compound 1.265 µM): 0.386
relative viability (BI-D1870 + Pemetrexed; first compound 4 µM): 0.344

NCI-H3122
relative viability (Zebularine + Trametinib; first compound 1 µM): 0.268
relative viability (Zebularine + Trametinib; first compound 3.162 µM): 0.294
relative viability (Zebularine + Trametinib; first compound 10 µM): 0.22
relative viability (Zebularine + Trametinib; first compound 31.62 µM): 0.283
relative viability (Zebularine + Trametinib; first compound 100 µM): 0.251
relative viability (Zebularine + Pemetrexed; first compound 1 µM): 0.189
relative viability (Zebularine + Pemetrexed; first compound 3.162 µM): 0.183
relative viability (Zebularine + Pemetrexed; first compound 10 µM): 0.175
relative viability (Zebularine + Pemetrexed; first compound 31.62 µM): 0.225
relative viability (Zebularine + Pemetrexed; first compound 100 µM): 0.225
relative viability (Zebularine + Foretinib; first compound 1 µM): 1.02
relative viability (Zebularine + Foretinib; first compound 3.162 µM): 0.939
relative viability (Zebularine + Foretinib; first compound 31.62 µM): 1.02
relative viability (Zebularine + Foretinib; first compound 100 µM): 0.969
relative viability (BI-D1870 + Pemetrexed; first compound 0.04 µM): 0.187
relative viability (BI-D1870 + Pemetrexed; first compound 0.1265 µM): 0.194
relative viability (BI-D1870 + Pemetrexed; first compound 0.4 µM): 0.203
relative viability (BI-D1870 + Pemetrexed; first compound 1.265 µM): 0.222
relative viability (BI-D1870 + Pemetrexed; first compound 4 µM): 0.202

HCC-827
relative viability (Zebularine + Trametinib; first compound 1 µM): 0.535
relative viability (Zebularine + Trametinib; first compound 3.162 µM): 0.574
relative viability (Zebularine + Trametinib; first compound 10 µM): 0.492
relative viability (Zebularine + Trametinib; first compound 31.62 µM): 0.546
relative viability (Zebularine + Trametinib; first compound 100 µM): 0.404
relative viability (Zebularine + Pemetrexed; first compound 1 µM): 0.328
relative viability (Zebularine + Pemetrexed; first compound 3.162 µM): 0.254
relative viability (Zebularine + Pemetrexed; first compound 10 µM): 0.229
relative viability (Zebularine + Pemetrexed; first compound 31.62 µM): 0.243
relative viability (Zebularine + Pemetrexed; first compound 100 µM): 0.235
relative viability (Zebularine + Foretinib; first compound 1 µM): 1.15
relative viability (Zebularine + Foretinib; first compound 3.162 µM): 1.07
relative viability (Zebularine + Foretinib; first compound 10 µM): 0.718
relative viability (Zebularine + Foretinib; first compound 31.62 µM): 0.714
relative viability (Zebularine + Foretinib; first compound 100 µM): 0.317
relative viability (BI-D1870 + Pemetrexed; first compound 0.04 µM): 0.184
relative viability (BI-D1870 + Pemetrexed; first compound 0.1265 µM): 0.31
relative viability (BI-D1870 + Pemetrexed; first compound 0.4 µM): 0.241
relative viability (BI-D1870 + Pemetrexed; first compound 1.265 µM): 0.254
relative viability (BI-D1870 + Pemetrexed; first compound 4 µM): 0.141

SK-LU-1
relative viability (Zebularine + Trametinib; first compound 1 µM): 0.52
relative viability (Zebularine + Trametinib; first compound 3.162 µM): 0.485
relative viability (Zebularine + Trametinib; first compound 10 µM): 0.412
relative viability (Zebularine + Trametinib; first compound 31.62 µM): 0.446
relative viability (Zebularine + Trametinib; first compound 100 µM): 0.371
relative viability (Zebularine + Pemetrexed; first compound 1 µM): 1.03
relative viability (Zebularine + Pemetrexed; first compound 3.162 µM): 0.922
relative viability (Zebularine + Pemetrexed; first compound 10 µM): 0.52
relative viability (Zebularine + Pemetrexed; first compound 31.62 µM): 0.523
relative viability (Zebularine + Pemetrexed; first compound 100 µM): 0.542
relative viability (Zebularine + Foretinib; first compound 1 µM): 0.884
relative viability (Zebularine + Foretinib; first compound 3.162 µM): 0.8
relative viability (Zebularine + Foretinib; first compound 10 µM): 0.47
relative viability (Zebularine + Foretinib; first compound 31.62 µM): 0.651
relative viability (Zebularine + Foretinib; first compound 100 µM): 0.444
relative viability (BI-D1870 + Pemetrexed; first compound 0.04 µM): 1.1
relative viability (BI-D1870 + Pemetrexed; first compound 0.1265 µM): 0.918
relative viability (BI-D1870 + Pemetrexed; first compound 0.4 µM): 1.01
relative viability (BI-D1870 + Pemetrexed; first compound 1.265 µM): 0.868
relative viability (BI-D1870 + Pemetrexed; first compound 4 µM): 0.366

NCI-H1975
relative viability (Zebularine + Trametinib; first compound 1 µM): 0.298
relative viability (Zebularine + Trametinib; first compound 3.162 µM): 0.268
relative viability (Zebularine + Trametinib; first compound 10 µM): 0.338
relative viability (Zebularine + Trametinib; first compound 31.62 µM): 0.283
relative viability (Zebularine + Trametinib; first compound 100 µM): 0.222
relative viability (Zebularine + Pemetrexed; first compound 1 µM): 0.323
relative viability (Zebularine + Pemetrexed; first compound 3.162 µM): 0.283
relative viability (Zebularine + Pemetrexed; first compound 10 µM): 0.235
relative viability (Zebularine + Pemetrexed; first compound 31.62 µM): 0.206
relative viability (Zebularine + Pemetrexed; first compound 100 µM): 0.2
relative viability (Zebularine + Foretinib; first compound 1 µM): 0.961
relative viability (Zebularine + Foretinib; first compound 3.162 µM): 0.889
relative viability (Zebularine + Foretinib; first compound 10 µM): 0.362
relative viability (Zebularine + Foretinib; first compound 31.62 µM): 0.292
relative viability (Zebularine + Foretinib; first compound 100 µM): 0.2
relative viability (BI-D1870 + Pemetrexed; first compound 0.04 µM): 0.299
relative viability (BI-D1870 + Pemetrexed; first compound 0.1265 µM): 0.272
relative viability (BI-D1870 + Pemetrexed; first compound 0.4 µM): 0.292
relative viability (BI-D1870 + Pemetrexed; first compound 1.265 µM): 0.305
relative viability (BI-D1870 + Pemetrexed; first compound 4 µM): 0.238

NCI-H1651
relative viability (Zebularine + Trametinib; first compound 1 µM): 0.875
relative viability (Zebularine + Trametinib; first compound 3.162 µM): 0.865
relative viability (Zebularine + Trametinib; first compound 10 µM): 0.82
relative viability (Zebularine + Trametinib; first compound 31.62 µM): 0.772
relative viability (Zebularine + Trametinib; first compound 100 µM): 0.35
relative viability (Zebularine + Pemetrexed; first compound 1 µM): 0.631
relative viability (Zebularine + Pemetrexed; first compound 3.162 µM): 0.556
relative viability (Zebularine + Pemetrexed; first compound 10 µM): 0.542
relative viability (Zebularine + Pemetrexed; first compound 31.62 µM): 0.563
relative viability (Zebularine + Pemetrexed; first compound 100 µM): 0.347
relative viability (Zebularine + Foretinib; first compound 1 µM): 0.856
relative viability (Zebularine + Foretinib; first compound 3.162 µM): 0.93
relative viability (Zebularine + Foretinib; first compound 10 µM): 0.511
relative viability (Zebularine + Foretinib; first compound 31.62 µM): 0.738
relative viability (Zebularine + Foretinib; first compound 100 µM): 0.374
relative viability (BI-D1870 + Pemetrexed; first compound 0.04 µM): 0.566
relative viability (BI-D1870 + Pemetrexed; first compound 0.1265 µM): 0.561
relative viability (BI-D1870 + Pemetrexed; first compound 0.4 µM): 0.547
relative viability (BI-D1870 + Pemetrexed; first compound 1.265 µM): 0.629
relative viability (BI-D1870 + Pemetrexed; first compound 4 µM): 0.54
